Patent publication US20070161648A1, “Substituted dihydro-isoindolones useful in treating kinase disorders” (priority 2005, published 2007)

What was measured:
A375 malignant melanoma = assay: Cell proliferation inhibition assay (14C-thymidine incorporation), A375; assay type: cell-based; settings: Homo sapiens, A-375
Text: (§1) The ability of a test compound to inhibit unregulated cell proliferation may be determined by measuring incorporation of ^14C-labelled thymidine into newly synthesized DNA within cell lines derived from carcinomas originating from several tissues. Accordingly, the effect of a test compound on proliferation of cells with a variety of phenotypes may be determined.
(§2) Carcinoma cell lines used include the HeLa cervical adenocarcinoma from the American Type Culture Collection (ATCC Cat. #CCL2), A375 malignant melanoma (ATCC Cat. #CRL-1619) and HCT-116 colon carcinoma (ATCC Cat. #CCL-247).
(§3) The carcinoma cells are trypsinized and counted. The cells (3000-8000 count) are added to each well of a 96-well CytoStar tissue culture treated scintillating microplate (Amersham #RPNQO160) in complete medium (100 μL) and the plate is then incubated in complete medium for 24 hrs at 37° C. in an inert atmosphere containing 5% CO2.
(§4) Test compound (1 μL) in 100% DMSO is added to the plate test-wells with DMSO only added to control-wells. The plate is incubated in complete medium for a second 24 hr period at 37° C. in an atmosphere containing 5% CO2.
(§5) An aliquot of a solution of Methyl ^14C-thymidine (56 mC/mmol) (NEN #NEC568 or Amersham #CFA532) and complete medium (20 uL to provide 0.2 μCi/well) is then added to each well and the plate is incubated for a third 24 hr period at 37° C. in an atmosphere containing 5% CO2.
(§6) The plate contents are then discarded, the plate is washed twice with PBS (200 μL) and then PBS (200 μL) is added to each well. The plate is sealed and the degree of methyl ^14C-thymidine incorporation is quantified on a Packard Top Count.
(§7) For a series of test concentrations, the IC50 was derived by graphing percent inhibition against the log of the concentrations tested for a given compound with results shown in Table 2.

VEGF-R2 kinase domain = biological target: T1, VEGF-R2 kinase domain (Rattus norvegicus, UniProt O08775); assay: VEGF-R2 screening assay (33P-ATP FlashPlate kinase assay); assay type: biochemical; settings: for IC50: 10 μM ATP
T1 construct: polyhistidine (N)
T1 sequence (O08775 786-1343): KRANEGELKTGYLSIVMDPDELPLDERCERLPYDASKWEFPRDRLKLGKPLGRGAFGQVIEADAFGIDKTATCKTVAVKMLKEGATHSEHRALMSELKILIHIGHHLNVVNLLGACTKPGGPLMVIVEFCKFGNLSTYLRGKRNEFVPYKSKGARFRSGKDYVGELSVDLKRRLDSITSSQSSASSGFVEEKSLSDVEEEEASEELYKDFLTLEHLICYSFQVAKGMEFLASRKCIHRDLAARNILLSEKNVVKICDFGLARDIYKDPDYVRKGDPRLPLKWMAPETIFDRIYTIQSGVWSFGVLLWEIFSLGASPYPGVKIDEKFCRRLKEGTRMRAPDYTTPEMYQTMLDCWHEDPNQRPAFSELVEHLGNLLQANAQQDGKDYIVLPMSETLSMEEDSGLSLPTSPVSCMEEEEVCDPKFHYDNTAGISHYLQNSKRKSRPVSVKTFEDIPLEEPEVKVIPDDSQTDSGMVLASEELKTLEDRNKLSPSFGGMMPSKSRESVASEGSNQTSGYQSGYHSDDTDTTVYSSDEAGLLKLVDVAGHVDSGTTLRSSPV
Description: (§8) 70 μL of the kinase reaction mixture was dispensed into the well of a streptavidin coated FlashPlate™ (Cat. # SMP103, NEN, Boston, Mass.).
(§9) Test compound stock in 100% DMSO (1 μL) was added to the wells resulting in a final concentration of 1% DMSO in the reaction with a 100 μL final reaction volume. Each enzyme was diluted in 50 mM Tris-HCl pH=8.0, 0.1% BSA and 30 μL was added to each well to initiate the reaction. The reaction was incubated for one hour at 30° C. At the end of the 1 hr incubation, the reaction was terminated by aspirating the mixture from the plate and washing the wells twice with PBS containing 100 mM EDTA. The biotinylated peptide substrate became immobilized on the Flashplate™ and the incorporation of ^33P-γ-ATP was measured by reading the plate on a scintillation counter. Inhibition of the enzymatic activity was measured by observing a reduced amount of ^33P-γ-ATP incorporated into the immobilized peptide.
The assay used 150 ng of the N-terminal biotinylated peptide biotin-[…]-amide (VEGF-R2) per well.
(§10) A maximum and minimum signal for the assay was determined on each plate. The percent inhibition of a test compound was calculated according to the formula: [formula]

[1] = tested on: HeLa cervical adenocarcinoma; assay: Cell proliferation inhibition assay (14C-thymidine incorporation), HeLa; assay type: cell-based; settings: Homo sapiens
Text: as §1, §2, §3, §4, §5, §6, §7

HCT-116 colon carcinoma = assay: Cell proliferation inhibition assay (14C-thymidine incorporation), HCT116; assay type: cell-based; settings: Homo sapiens
Text: as §1, §2, §3, §4, §5, §6, §7

Aurora-A = biological target: T2, Aurora-A (Mus musculus, UniProt P97477); assay: Aurora-A screening assay (33P-ATP FlashPlate kinase assay); assay type: biochemical, murine; settings: for IC50: 10 μM ATP
T2 construct: followed by the full length protein encoding the murine Aurora-A; polyhistidine (N); made in house; host or cells: Sf9 insect cells
T2 sequence (P97477 1-395): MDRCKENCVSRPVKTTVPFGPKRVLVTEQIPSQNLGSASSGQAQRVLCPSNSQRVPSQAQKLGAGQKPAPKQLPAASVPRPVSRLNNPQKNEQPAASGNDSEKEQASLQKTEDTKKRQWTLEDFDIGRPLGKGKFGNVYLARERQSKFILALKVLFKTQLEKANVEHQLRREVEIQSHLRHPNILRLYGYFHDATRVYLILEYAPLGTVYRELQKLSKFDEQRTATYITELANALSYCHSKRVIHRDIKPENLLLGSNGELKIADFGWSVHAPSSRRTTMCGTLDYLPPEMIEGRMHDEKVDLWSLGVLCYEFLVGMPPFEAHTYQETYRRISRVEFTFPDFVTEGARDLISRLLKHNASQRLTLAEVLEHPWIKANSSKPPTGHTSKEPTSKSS
Description: as §8, §9
Aurora-A is a fusion protein containing a polyhistidine tag at the N terminus followed by the full length protein encoding the murine Aurora-A (Accession number GB BC014711) expressed and purified from sf9 insect cells. The assay used 400 ng of the N-terminal biotinylated peptide biotin-[…]-amide (Aurora-A) per well.
as §10

Row | IC50 (A375 malignant melanoma) | IC50 (VEGF-R2 kinase domain) | IC50 [1] | IC50 (HCT-116 colon carcinoma) | IC50 (Aurora-A) | inhibition at 100 µM (VEGF-R2 kinase domain; single test concentration 100 μM, read-out: VEGF-R2 percent inhibition) | inhibition at 100 µM (Aurora-A; single test concentration 100 μM, read-out: Aurora-A percent inhibition) | Compound
1 | 0.763 µM | 0.018 µM | 3.35 µM | 2.26 µM | 0.061 µM | – | – | O=C1NCc2cccc(-c3cc4cc(OCCCN5CCC(CO)CC5)ccc4[nH]3)c21 [Cpd 2, 7-{5-[3-(4-hydroxymethyl-piperidin-1-yl)-propoxy]-1H-indol-2-yl}-2,3-dihydro-isoindol-1-one]
2 | 3.02 µM | 0.103 µM | 5.08 µM | 4.28 µM | 0.1 µM | – | – | COc1cc2c(c(-c3cc4cc(OC)ccc4[nH]3)c1)C(=O)NC2 [Cpd 6, 5-methoxy-7-(5-methoxy-1H-indol-2-yl)-2,3-dihydro-isoindol-1-one]
3 | 4.4 µM | 0.03 µM | 15 µM | 6.47 µM | 0.1 µM | – | – | O=C1NCc2cccc(-c3cc4cc(OCCCO)ccc4[nH]3)c21 [Cpd 5, 7-[5-(3-hydroxy-propoxy)-1H-indol-2-yl]-2,3-dihydro-isoindol-1-one]
4 | 0.437 µM | 0.056 µM | 4.63 µM | 2.34 µM | 0.2 µM | – | – | O=C1NCc2cccc(-c3cc4cc(OCCN5CCCCC5)ccc4[nH]3)c21 [Cpd 10, 7-[5-(2-piperidin-1-yl-ethoxy)-1H-indol-2-yl]-2,3-dihydro-isoindol-1-one]
5 | 4.14 µM | – | 14.6 µM | > 1 µM | – | 63% | 58% | CC(C)(C)OC(=O)n1c(-c2cccc3c2C(=O)NC3)cc2cc(OCCN3CCCCC3)ccc21 [Cpd 29, 2-(3-oxo-2,3-dihydro-1H-isoindol-4-yl)-5-(2-piperidin-1-yl-ethoxy)-indole-1-carboxylic acid tert-butyl ester]
